Measurements taken from the NIST ThermoML archive (doi:10.1016/j.jct.2015.07.028).
± gives the expanded uncertainty stated by the source.

Test: molar heat capacity at saturation pressure
Settings: Small (less than 1 g) adiabatic calorimetry

C=CC(C)(C)O [2-methyl-3-buten-2-ol]
molar heat capacity [J/K/mol]
Settings	Crystal 1	Crystal 2
5 K	–	0.3244 ± 0.021
5.363 K	–	0.4026 ± 0.021
5.571 K	–	0.4523 ± 0.022
5.832 K	–	0.524 ± 0.023
6.097 K	–	0.6053 ± 0.025
6.395 K	–	0.7063 ± 0.027
6.727 K	–	0.8287 ± 0.03
7.065 K	–	0.9656 ± 0.033
7.409 K	–	1.117 ± 0.036
7.759 K	–	1.284 ± 0.039
8.114 K	–	1.466 ± 0.043
8.474 K	–	1.662 ± 0.048
8.837 K	–	1.874 ± 0.052
9.202 K	–	2.099 ± 0.057
9.571 K	–	2.338 ± 0.062
9.942 K	–	2.587 ± 0.068
10 K	–	2.631 ± 0.051
10.42 K	–	2.931 ± 0.056
11.01 K	–	3.375 ± 0.062
11.6 K	–	3.843 ± 0.068
12.19 K	–	4.339 ± 0.075
12.79 K	–	4.858 ± 0.082
13.39 K	–	5.395 ± 0.089
14 K	–	5.954 ± 0.096
14.61 K	–	6.523 ± 0.1
15 K	–	6.921 ± 0.11
15.22 K	–	7.118 ± 0.11
15.95 K	–	7.872 ± 0.12
16.79 K	–	8.742 ± 0.13
17.63 K	–	9.598 ± 0.14
18.48 K	–	10.46 ± 0.15
19.32 K	–	11.32 ± 0.16
20 K	–	12.04 ± 0.13
20.18 K	–	12.2 ± 0.13
21.37 K	–	13.46 ± 0.14
22.9 K	–	15.06 ± 0.14
24.44 K	–	16.66 ± 0.15
25 K	–	17.22 ± 0.15
25.98 K	–	18.24 ± 0.16
27.53 K	–	19.75 ± 0.16
28.81 K	–	20.98 ± 0.16
30 K	–	22.12 ± 0.17
30.24 K	–	22.33 ± 0.17
31.96 K	–	23.92 ± 0.18
33.85 K	–	25.59 ± 0.19
35 K	–	26.55 ± 0.2
35.75 K	–	27.18 ± 0.2
37.65 K	–	28.7 ± 0.21
39.55 K	–	30.18 ± 0.21
40 K	–	30.53 ± 0.22
41.55 K	–	31.7 ± 0.22
43.65 K	–	33.27 ± 0.23
45 K	–	34.27 ± 0.24
45.75 K	–	34.79 ± 0.24
47.85 K	–	36.31 ± 0.25
49.95 K	–	37.78 ± 0.25
50 K	–	37.8 ± 0.25
52.05 K	–	39.21 ± 0.26
54.16 K	–	40.59 ± 0.27
56.27 K	–	41.96 ± 0.28
58.39 K	–	43.29 ± 0.28
60 K	–	44.33 ± 0.29
60.51 K	–	44.64 ± 0.29
62.64 K	–	45.97 ± 0.3
64.76 K	–	47.34 ± 0.3
66.88 K	–	48.71 ± 0.31
69.01 K	–	50.1 ± 0.32
70 K	–	50.7 ± 0.32
71.24 K	–	51.62 ± 0.33
73.58 K	–	53.27 ± 0.34
75.92 K	–	55.14 ± 0.35
77.87 K	–	57.21 ± 0.36
78.23 K	–	57.58 ± 0.36
78.27 K	–	57.34 ± 0.36
78.34 K	–	57.57 ± 0.36
79.01 K	–	58.22 ± 0.36
79.1 K	–	58.39 ± 0.36
79.23 K	–	58.44 ± 0.36
79.68 K	–	58.95 ± 0.37
79.83 K	–	59.11 ± 0.37
80 K	–	57.08 ± 0.36
80.23 K	–	59.74 ± 0.37
80.33 K	–	59.84 ± 0.37
80.34 K	–	59.8 ± 0.37
80.38 K	–	59.82 ± 0.37
80.93 K	–	60.61 ± 0.37
81.01 K	–	60.76 ± 0.38
81.36 K	–	61.46 ± 0.38
81.48 K	–	61.53 ± 0.38
81.67 K	–	61.8 ± 0.38
82.03 K	–	62.46 ± 0.38
82.27 K	–	62.81 ± 0.39
82.34 K	–	62.96 ± 0.39
82.49 K	–	63.36 ± 0.39
82.57 K	–	63.46 ± 0.39
83 K	–	64.02 ± 0.39
83.12 K	–	64.33 ± 0.39
83.61 K	–	65.12 ± 0.4
83.66 K	–	65.08 ± 0.4
84.19 K	–	66.18 ± 0.4
84.2 K	–	65.98 ± 0.4
84.31 K	–	66.19 ± 0.4
84.72 K	–	67.2 ± 0.41
84.74 K	–	67.26 ± 0.41
84.97 K	–	67.69 ± 0.41
85.28 K	–	68.9 ± 0.42
85.62 K	–	69.64 ± 0.42
85.81 K	–	71.17 ± 0.44
85.82 K	–	71.29 ± 0.44
86.07 K	–	73.72 ± 0.45
86.26 K	–	73.39 ± 0.44
86.33 K	–	74.69 ± 0.45
88.1 K	61.32 ± 0.32	62.25 ± 0.38
89.48 K	65.12 ± 0.4	–
89.49 K	64.37 ± 0.39	–
89.61 K	64.85 ± 0.4	–
90 K	62.35 ± 0.35	–
90.04 K	63.82 ± 0.41	–
90.18 K	63.5 ± 0.41	–
90.62 K	63.44 ± 0.41	–
90.78 K	63.53 ± 0.41	–
90.87 K	63.45 ± 0.41	–
91.19 K	63.49 ± 0.41	–
91.32 K	63.69 ± 0.41	–
91.57 K	63.46 ± 0.41	–
91.77 K	63.59 ± 0.41	–
91.97 K	63.75 ± 0.41	–
92.27 K	63.73 ± 0.41	–
92.34 K	63.78 ± 0.41	–
92.92 K	64.01 ± 0.41	–
92.97 K	64.05 ± 0.41	–
93.15 K	64.24 ± 0.41	–
93.36 K	64.34 ± 0.41	–
93.5 K	64.26 ± 0.41	–
93.67 K	64.43 ± 0.41	–
94.08 K	64.54 ± 0.41	–
94.35 K	64.76 ± 0.42	–
94.37 K	64.82 ± 0.42	–
94.67 K	64.85 ± 0.42	–
95.08 K	65.12 ± 0.42	–
95.25 K	65.18 ± 0.42	–
95.42 K	65.33 ± 0.42	–
95.55 K	65.34 ± 0.42	–
96.34 K	65.8 ± 0.42	–
96.44 K	65.84 ± 0.42	–
96.75 K	65.99 ± 0.42	–
97.48 K	66.4 ± 0.42	–
97.95 K	66.62 ± 0.42	–
98.15 K	66.74 ± 0.42	–
98.26 K	66.77 ± 0.42	–
99.15 K	67.27 ± 0.43	–
99.55 K	67.5 ± 0.43	–
99.97 K	67.73 ± 0.43	–
100 K	67.72 ± 0.43	–
101.8 K	68.7 ± 0.43	–
101.81 K	68.72 ± 0.43	–
103.63 K	69.68 ± 0.44	–
104.26 K	70.06 ± 0.44	–
105.46 K	70.68 ± 0.44	–
106.72 K	71.41 ± 0.45	–
107.3 K	71.7 ± 0.45	–
109.14 K	72.73 ± 0.45	–
109.18 K	72.79 ± 0.45	–
110 K	73.25 ± 0.45	–
110.98 K	73.78 ± 0.46	–
111.65 K	74.18 ± 0.46	–
112.82 K	74.82 ± 0.46	–
114.12 K	75.6 ± 0.47	–
114.67 K	75.87 ± 0.47	–
116.51 K	76.95 ± 0.47	–
116.6 K	77.03 ± 0.47	–
118.36 K	78.04 ± 0.48	–
119.07 K	78.49 ± 0.48	–
120 K	78.98 ± 0.49	–
120.2 K	79.15 ± 0.48	–
121.55 K	79.98 ± 0.49	–
122.05 K	80.25 ± 0.49	–
123.9 K	81.37 ± 0.49	–
124.02 K	81.49 ± 0.49	–
125.74 K	82.53 ± 0.5	–
126.49 K	83.07 ± 0.5	–
127.59 K	83.73 ± 0.51	–
128.96 K	84.71 ± 0.51	–
129.43 K	85.04 ± 0.51	–
130 K	85.52 ± 0.51	–
131.26 K	86.38 ± 0.52	–
131.43 K	86.54 ± 0.52	–
133.1 K	87.73 ± 0.52	–
133.88 K	88.39 ± 0.53	–
134.93 K	89.13 ± 0.53	–
136.33 K	90.2 ± 0.54	–
136.76 K	90.46 ± 0.54	–
138.58 K	91.75 ± 0.54	–
138.78 K	91.98 ± 0.54	–
140 K	92.84 ± 0.55	–
140.4 K	93.1 ± 0.55	–
141.22 K	93.76 ± 0.55	–
142.22 K	94.49 ± 0.56	–
143.66 K	95.62 ± 0.56	–
144.04 K	95.9 ± 0.56	–
145.85 K	97.31 ± 0.57	–
146.09 K	97.56 ± 0.57	–
147.65 K	98.82 ± 0.58	–
148.5 K	99.58 ± 0.58	–
149.45 K	100.3 ± 0.6	–
150 K	100.8 ± 0.6	–
150.92 K	101.6 ± 0.6	–
151.37 K	102 ± 0.6	–
153.32 K	103.8 ± 0.6	–
153.4 K	103.9 ± 0.6	–
155.42 K	105.7 ± 0.6	–
155.71 K	106 ± 0.6	–
157.44 K	107.7 ± 0.6	–
158.09 K	108.4 ± 0.6	–
159.45 K	109.7 ± 0.6	–
160 K	110.3 ± 0.6	–
160.45 K	110.8 ± 0.6	–
161.45 K	111.8 ± 0.6	–
162.8 K	113.2 ± 0.6	–
163.44 K	113.9 ± 0.7	–
165.14 K	115.7 ± 0.7	–
165.42 K	116 ± 0.7	–
167.39 K	118.2 ± 0.7	–
167.47 K	118.3 ± 0.7	–
